Read-outs that look alike come from different tables or passages of the source. Where a SMILES comes first, the peptide text is derived from it. [ ]: non-standard residue; d: D form. The star is where a group is joined. Sta = CC(C)C[C@H](N)[C@@H](O)CC(=O)O; Isovaleryl = CC(C)CC(=O)*
B1: α2-Macroglobuline: protein reported to at least partially inhibit PCP activity (protein, UniProt P01023 24-1474, looked up)
Alpha-2-macroglobulin: SVSGKPQYMVLVPSLLHTETTEKGCVLLSYLNETVTVSASLESVRGNRSLFTDLEAENDVLHCVAFAVPKSSSNEEVMFLTVQVKGPTQEFKKRTTVMVKNEDSLVFVQTDKSIYKPGQTVKFRVVSMDENFHPLNELIPLVYIQDPKGNRIAQWQSFQLEGGLKQFSFPLSSEPFQGSYKVVVQKKSGGRTEHPFTVEEFVLPKFEVQVTVPKIITILEEEMNVSVCGLYTYGKPVPGHVTVSICRKYSDASDCHGEDSQAFCEKFSGQLNSHGCFYQQVKTKVFQLKRKEYEMKLHTEAQIQEEGTVVELTGRQSSEITRTITKLSFVKVDSHFRQGIPFFGQVRLVDGKGVPIPNKVIFIRGNEANYYSNATTDEHGLVQFSINTTNVMGTSLTVRVNYKDRSPCYGYQWVSEEHEEAHHTAYLVFSPSKSFVHLEPMSHELPCGHTQTVQAHYILNGGTLLGLKKLSFYYLIMAKGGIVRTGTHGLLVKQEDMKGHFSISIPVKSDIAPVARLLIYAVLPTGDVIGDSAKYDVENCLANKVDLSFSPSQSLPASHAHLRVTAAPQSVCALRAVDQSVLLMKPDAELSASSVYNLLPEKDLTGFPGPLNDQDNEDCINRHNVYINGITYTPVSSTNEKDMYSFLEDMGLKAFTNSKIRKPKMCPQLQQYEMHGPEGLRVGFYESDVMGRGHARLVHVEEPHTETVRKYFPETWIWDLVVVNSAGVAEVGVTVPDTITEWKAGAFCLSEDAGLGISSTASLRAFQPFFVELTMPYSVIRGEAFTLKATVLNYLPKCIRVSVQLEASPAFLAVPVEKEQAPHCICANGRQTVSWAVTPKSLGNVNFTVSAEALESQELCGTEVPSVPEHGRKDTVIKPLLVEPEGLEKETTFNSLLCPSGGEVSEELSLKLPPNVVEESARASVSVLGDILGSAMQNTQNLLQMPYGCGEQNMVLFAPNIYVLDYLNETQQLTPEIKSKAIGYLNTGYQRQLNYKHYDGSYSTFGERYGRNQGNTWLTAFVLKTFAQARAYIFIDEAHITQALIWLSQRQKDNGCFRSSGSLLNNAIKGGVEDEVTLSAYITIALLEIPLTVTHPVVRNALFCLESAWKTAQEGDHGSHVYTKALLAYAFALAGNQDKRKEVLKSLNEEAVKKDNSVHWERPQKPKAPVGHFYEPQAPSAEVEMTSYVLLAYLTAQPAPTSEDLTSATNIVKWITKQQNAQGGFSSTQDTVVALHALSKYGAATFTRTGKAAQVTIQSSGTFSSKFQVDNNNRLLLQQVSLPELPGEYSMKVTGEGCVYLQTSLKYNILPEKEEFPFALGVQTLPQTCDEPKAHTSFQISLSVSYTGSRSASNMAIVDVKMVSGFIPLKPTVKMLERSNHVSRTEVSSNHVLIYLDKVSNQTLSLFFTVLQDVPVRDLKPAIVKVYDYYETDEFAIAEYNAPCSKDLGNA
B2: ovostatin: protein reported to at least partially inhibit PCP activity (protein, UniProt P20740 37-1473, looked up)
Ovostatin: KEPEPQYVLMVPAVLQSDSPSQVCLQFFNLNQTISVRVVLEYDTINTTIFEKNTTTSNGLQCLNFMIPPVTSVSLAFISFTAKGTTFDLKERRSVMIWNMESFVFVQTDKPIYKPGQSVMFRVVALDFNFKPVQEMYPLIAVQDPQNNRIFQWQNVTSEINIVQIEFPLTEEPILGNYKIIVTKKSGERTSHSFLVEEYVLPKFDVTVTAPGSLTVMDSELTVKICAVYTYGQPVEGKVQLSVCRDFDSYGRCKKSPVCQSFTKDLDTDGCLSHILSSKVFELNRIGYKRNLDVKAIVTEKEQVCNLTATQSISITQVMSSLQFENVDHHYRRGIPYFGQIKLVDKDNSPISNKVIQLFVNNKNTHNFTTDINGIAPFSIDTSKIFDPELSLKALYKTSDQCHSEGWIEPSYPDASLSVQRLYSWTSSFVRIEPLWKDMSCGQKRMITVYYILNTEGYEHINIVNFYYVGMAKGKIVLTGEIKVNIQADQNGTFMIPLVVNEKMAPALRLLVYMLHPAKELVADSVRFSIEKCFKNKVQLQFSEKQMLTTSNVSLVIEAAANSFCAVRAVDKSMLLLKSETELSAETIYNLHPIQDLQGYIFNGLNLEDDPQDPCVSSDDIFHKGLYYRPLTSGLGPDVYQFLRDMGMKFFTNSKIRQPTVCTRETVRPPSYFLNAGFTASTHHVKLSAEVAREERGKRHILETIREFFPETWIWDIILINSTGKASVSYTIPDTITEWKASAFCVEELAGFGMSVPATLTAFQPFFVDLTLPYSIIHGEDFLVRANVFNYLNHCIKINVLLLESLDYQAKLISPEDDGCVCAKIRKSYVWNIFPKGTGDVLFSITAETNDDEACEEEALRNIRIDYRDTQIRALLVEPEGIRREETQNFLICMKDDVISQDVAIDLPTNVVEGSPRPSFSVVGDIMGTAIQNVHQLLQMPFGNGEQNMVLFAPNIYVLDYLDKTRQLSEDVKSKTIGYLVSGYQKQLSYKHPDGSYSTFGIRDKEGNTWLTAFVYKSFAEASRFIYIDDNVQAQTLIWLATKQKTDGCFQSTGILVNNAMKGGVENELSLSAYITIALLEAGHSMSHTVIRNAFYCLETASEKNITDIYTQALVAYAFCLAGKAEICESFLRELQKSAKEVDGSKYWEQNQRSAPEKSHLLDHVQSTDVEITSYVLLALLYKPNRSQEDLTKASAIVQWIIRQQNSYGGFASMQDTVVALQALAAYGAATYNSVTQNVIKINSKNTFEKVFTVNNENRLLLQQTPLPQVPGKYSLTVNGTGCVLIQTALRYNIHLPEGAFGFSLSVQTSNASCPRDQPGKFDIVLISSYTGKRSSSNMVIIDVKMLSGFVPVKSSLDQLIDDHTVMQVEYKKNHVLLYLGNILQKRRKEVTFSVEQDFVVTHPKPAPVQIYDYYETEEYAVAEYMSLCRGVVEEMG

Assays:
PCP = details: cited from earlier work
[1] = Dynamic Vapour Sorption (moisture sorption); format: physicochemical
Protocol: Melting points were determined using open glass capillary tubes and a Gallenkamp melting point apparatus and are uncorrected. Nuclear magnetic resonance (NMR) data were obtained using Varian Unity Inova-400, Varian Unity Inova-300 or Bruker AC300 spectrometers and are quoted in parts per million from tetramethylsilane. Mass spectral (MS) data were obtained on a Finnigan Mat. TSQ 7000 or a Fisons Instruments Trio 1000. The calculated and observed ions quoted refer to the isotopic composition of lowest mass. Infra red (1R) spectra were measured using a Nicolet Magna 550 Fourier transform infra-red spectrometer. Flash chromatography refers to column chromatography on silica gel (Kieselgel 60, 230-400 mesh, from E. Merck, Darmstadt. Kieselgel 60 F254 plates from E. Merck were used for TLC, and compounds were visualised using UV light, 5% aqueous potassium permanagate or Dragendorff's reagent (oversprayed with aqueous sodium nitrite). Thermal analyses by Differential Scanning Calorimetry (DSC) and ThermoGravimetric Analysis (TGA) were obtained using Perkin Elmer DSC7 and TGA7. Moisture sorption characteristics were recorded using Surface Measurement Systems Ltd. Automated Water Sorption Analyser DVS 1. Water content was determined on a Mitsubishi CA100 (Coulometric Karl Fisher Titrator). Powder X-ray diffraction (PXRD) pattern was determined using a Siemens D5000 powder X-ray diffractometer fitted with an automatic sample changer, a theta-theta goniometer, automatic beam divergence slits, a secondary monochromator and a scintillation counter. Other measurements were taken using standard equipment. Hexane refers to a mixture of hexanes (hplc grade) b.p. 65-70° C. Ether refers to diethyl ether. Acetic acid refers to glacial acetic acid. 1-Hydroxy-7-aza-1H-1,2,3-benzotriazole (HOAt), N-[(dimethylamino)-1H-1,2,3-triazolo[4,5-b]pyridin-1-ylmethylene]-N-methylmethaninium hexafluorophosphate N-oxide (HATU) and 7-azabenzotriazol-1-yloxytris(pyrrolidino)phosphonium hexafluorophosphate (PyAOP) were purchased from PerSeptive Biosystems U.K. Ltd. “DIPE” refers to diisopropyl ether. Reverse-phase silica gel for flash chromatography was obtained from Fluka (Fluka 100, C18, 40-63μ). Pentane refers to High Performance Liquid Chromatography (HPLC) grade n-pentane (b.pt.35-37° C.). Nomenclature has been allocated using a program available from IUPAC. Standard abbreviations are used throughout, e.g. “Me” is methyl, “Et” is ethyl, “Pr” is propyl, “Ph” is phenyl, etc. It was noticed that during certain repetitions of the methods disclosed in the Examples and Preparations that some racemisation appeared to have taken place. It was found in some cases that specific desired enantiomers can be separated from mixtures thereof by routine methods such as by differential crystallisation. • ^aHPLC autopurification performed using 2 columns—Phenomonex LUNA C8 150×21.2 mm, 10 μm and Phenomonex […] C18 150×21.2 mm, […], eluting with a gradient system of organic solvent [ammonium acetate (aq) 100 mM:acetonitrile (1:9)]:aqueous solvent [ammonium acetate (aq) 100 mM:acetonitrile (9:1)] • ^bHPLC autopurification performed using 2 columns—Phenomonex LUNA C8 150×21.2 mm, 10 μm and Phenomonex […] C18 150×21.2 mm, 5 μm, eluting with a gradient system of organic solvent (acetonitrile):aqueous solvent (0.1% aqueous trifluoroacetic acid)

Molecule	PCP inhibition (in words) (PCP; literature reports)	also measured
O[C@H](CS)[C@H](O)CS (racemic) [Dithiothreitol]	inhibitory at low concentrations	–
[Cd+2] [Cd^2+]	inhibitory at low concentrations	–
[Cu+2] [Cu^2+]	inhibitory at low concentrations	–
NC(=O)c1noc([C@H](CCCC2CCCCC2)CC(=O)NO)n1 [Example 2(b), 5-{(1R)-4-Cyclohexyl-1-[2-(hydroxyamino)-2-oxoethyl]butyl}-1,2,4-oxadiazole-3-carboxamide Monohydrate]	–	Dynamic Vapour Sorption ([1]; 2% RH (30° C.)): 4.84 % w/w; Dynamic Vapour Sorption ([1]; 20% RH (30° C.)): 5.17 % w/w; Dynamic Vapour Sorption ([1]; below 1% RH (30° C.)): significant dehydration
NC(=O)c1noc([C@H](CCCC2CCCCC2)CC(=O)NO)n1 [Example 2(c), 5-{(1R)-4-Cyclohexyl-1-[2-(hydroxyamino)-2-oxoethyl]butyl}-1,2,4-oxadiazole-3-carboxamide (Anhydrous)]	–	Dynamic Vapour Sorption ([1]; 15% RH (30° C.)): 0.18 % w/w; Dynamic Vapour Sorption ([1]; 30% RH (30° C.)): 0.23 % w/w; Dynamic Vapour Sorption, hydration behaviour ([1]; 60% RH (30° C.), converting to the monohydrate (XRD)): hydrates slowly; Dynamic Vapour Sorption, equilibrium ([1]; 90% RH (30° C.)): 5.3 % w/w
O=C(C[C@@H](CCCC1CCCCC1)c1nc(C(=O)NCc2ccccn2)no1)NO [Example 10, 5-{(1R)-4-Cyclohexyl-1-[2-(hydroxyamino)-2-oxoethyl]butyl}-N-(2-pyridinylmethyl) -1,2,4-oxadiazole-3-carboxamide]	–	melting point: 128 to 130 °C
O=C(O)CNC(=O)c1noc([C@H](CCCC2CCCCC2)CC(=O)NO)n1 [Example 11, 2-{[(5-{(1R)-4-Cyclohexyl-1-[2-(hydroxyamino)-2-oxoethyl]butyl}-1,2,4-oxadiazol-3-yl)carbonyl]amino}acetic Acid]	–	melting point: 141 to 142 °C
CCCCCCCCCCCCOS(=O)(=O)[O-].[Na+] [SDS]	inhibitory at low concentrations	–
[Zn+2] [Zn^2+]	inhibitory at low concentrations	–
N=C(N)NCCC[C@H](N)C(=O)O [arginine]	inhibited	–
CC(C)C[C@H](NC(=O)[C@@H](NC(=O)N[C@@H](Cc1ccccc1)C(=O)O)[C@@H]1CCN=C(N)N1)C(=O)N[C@H](C=O)Cc1ccccc1 [chymostatin]	relatively strong inhibitors	–
NCCCC[C@H](N)C(=O)O [lysine]	inhibited	–
CC(C)CC(=O)N[C@H](C(=O)N[C@H](C(=O)N[C@@H](CC(C)C)[C@@H](O)CC(=O)N[C@@H](C)C(=O)N[C@@H](CC(C)C)[C@@H](O)CC(=O)O)C(C)C)C(C)C [pepstatin A] (Isovaleryl-VV[Sta]A[Sta]-OH)	relatively strong inhibitors	–
Tris-HCl [Tris-HCl buffer]	–	PCP inhibition (in words) (PCP; buffer concentration 0.2-0.5M): markedly inhibited activity
concanavalin A	inhibitory at low concentrations	–
B1	at least partially inhibit	–
B2	at least partially inhibit	–
